Experimental data reported in ChEMBL document CHEMBL1122489, “Pyrimidine derivatives. 4. Synthesis and antihypertensive activity of 4-amino-2-(4-cinnamoylpiperazino)-6,7-dimethoxyquinazoline derivatives” (J Med Chem, 1983).

Experiments:
Assay type in all cases: functional
Rattus norvegicus [1] = assay: Antihypertensive activity rating in conscious SHR after 24 hr post dose at 10 mg/kg (po)
Rattus norvegicus [2] = assay: Antihypertensive activity rating in conscious SHR after 1 hr post dose at 10 mg/kg (po)
Rattus norvegicus [3] = assay: Antihypertensive activity rating in conscious SHR after 6 hr post dose at 10 mg/kg (po)
Rattus norvegicus [4] = assay: Antihypertensive activity rating in conscious SHR after 3 hr post dose at 10 mg/kg (po)
Rattus norvegicus [5] = assay: Maximum percent decrease in blood pressure in SHR dosed at 10 mg/kg (hour post dose in parentheses)
Rattus norvegicus [6] = assay: Antihypertensive activity rating in conscious SHR after 6 hr post dose at 0.3 mg/kg (po)
Rattus norvegicus [7] = assay: Antihypertensive activity rating in conscious SHR after 1 hr post dose at 0.3 mg/kg (po)
Rattus norvegicus [8] = assay: Antihypertensive activity rating in conscious SHR after 6 hr post dose at 3 mg/kg (po)
Rattus norvegicus [9] = assay: Antihypertensive activity rating in conscious SHR after 3 hr post dose at 0.3 mg/kg (po)
Rattus norvegicus [10] = assay: Antihypertensive activity rating in conscious SHR after 1 hr post dose at 3 mg/kg (po)
Rattus norvegicus [11] = assay: Antihypertensive activity rating in conscious SHR after 24 hr post dose at 1 mg/kg (po)
Rattus norvegicus [12] = assay: Antihypertensive activity rating in conscious SHR after 24 hr post dose at 3 mg/kg (po)
Rattus norvegicus [13] = assay: Antihypertensive activity rating in conscious SHR after 6 hr post dose at 1 mg/kg (po)
Rattus norvegicus [14] = assay: Maximum percent decrease in blood pressure in SHR dosed at 1 mg/kg (hour post dose in parentheses)
Rattus norvegicus [15] = assay: Antihypertensive activity rating in conscious SHR after 1 hr post dose at 1 mg/kg (po)
Rattus norvegicus [16] = assay: Antihypertensive activity rating in conscious SHR after 3 h post dose at 3 mg/kg (po)
Rattus norvegicus [17] = assay: Maximum percent decrease in blood pressure in SHR dosed at 0.3 mg/kg (hour post dose in parentheses)
Rattus norvegicus [18] = assay: Antihypertensive activity rating in conscious SHR after 24 hr post dose at 0.3 mg/kg (po)
Rattus norvegicus [19] = assay: Maximum percent decrease in blood pressure in SHR dosed at 3 mg/kg (hour post dose in parentheses)
Rattus norvegicus [20] = assay: Antihypertensive activity rating in conscious SHR after 3 hr post dose at 1 mg/kg (po)
Rattus norvegicus [21] = species on record: Rattus norvegicus; assay: Compound was tested for alpha-adrenoceptor blocking activity by its ability to antagonize norepinephrine contraction in the rat thoracic aorta; conditions: read-out: pA2 (converted)
[22] = Potency ratio in rat thoracic aorta

| Structure (SMILES) | Activity (Rattus norvegicus [1]) | Activity (Rattus norvegicus [2]) | Activity (Rattus norvegicus [3]) | Activity (Rattus norvegicus [4]) | Decrease (Rattus norvegicus [5]) [%] | Activity (Rattus norvegicus [8]) | Activity (Rattus norvegicus [10]) | Activity (Rattus norvegicus [11]) | Activity (Rattus norvegicus [12]) | Activity (Rattus norvegicus [13]) | Activity (Rattus norvegicus [15]) | Activity (Rattus norvegicus [16]) | Decrease (Rattus norvegicus [19]) [%] | Activity (Rattus norvegicus [20]) | also measured |
| --- | --- | --- | --- | --- | --- | --- | --- | --- | --- | --- | --- | --- | --- | --- | --- |
| COc1cc2nc(N3CCN(C(=O)/C=C/c4ccc(OC)c(OC)c4OC)CC3)nc(N)c2cc1OC | 0 | 0 | 1 | 1 | 16 | – | – | – | – | – | – | – | – | – | – |
| COc1cc2nc(N3CCN(C(=O)/C=C/c4cccc(C(F)(F)F)c4)CC3)nc(N)c2cc1OC | – | – | 0 | 0 | – | – | – | – | – | – | – | – | – | – | – |
| COc1cc2nc(N3CCN(C(=O)/C=C/c4cccs4)CC3)nc(N)c2cc1OC | – | – | – | – | – | 2 | 2 | 0 | 0 | 1 | 1 | 1 | 24 | 1 | Activity (Rattus norvegicus [6]): 1; Activity (Rattus norvegicus [7]): 0; Activity (Rattus norvegicus [9]): 0; Decrease (Rattus norvegicus [14]): 14%; Decrease (Rattus norvegicus [17]): 10%; Activity (Rattus norvegicus [18]): 0 |
| COc1cc2nc(N3CCN(C(=O)/C=C/c4ccc(Cl)c(Cl)c4)CC3)nc(N)c2cc1OC | – | – | 0 | 0 | – | – | – | – | – | – | – | – | – | – | – |
| COc1cc2nc(N3CCN(C(=O)/C=C/c4ccccc4C)CC3)nc(N)c2cc1OC | 0 | – | 2 | 2 | 23 | 1 | 1 | 0 | 0 | 0 | 1 | 1 | 18 | 0 | Decrease (Rattus norvegicus [14]): 12% |
| COc1cc2nc(N3CCN(C(=O)/C=C/c4ccsc4)CC3)nc(N)c2cc1OC | – | – | – | – | – | 1 | 2 | 0 | 0 | 1 | 1 | 1 | 25 | 1 | Activity (Rattus norvegicus [6]): 1; Activity (Rattus norvegicus [7]): 1; Activity (Rattus norvegicus [9]): 1; Decrease (Rattus norvegicus [14]): 19%; Decrease (Rattus norvegicus [17]): 11%; Activity (Rattus norvegicus [18]): 0 |
| COc1cc2nc(N3CCN(C(=O)/C=C/c4ccc(C(C)C)cc4)CC3)nc(N)c2cc1OC | – | – | 0 | 0 | – | – | – | – | – | – | – | – | – | – | – |
| COc1cc2nc(N3CCN(C(=O)/C=C/c4cccc(C)c4)CC3)nc(N)c2cc1OC | 0 | 0 | 1 | 1 | 18 | – | – | – | – | – | – | – | – | – | – |
| COc1cc2nc(N3CCN(C(=O)/C=C/c4ccoc4)CC3)nc(N)c2cc1OC | – | – | – | – | – | 1 | 1 | – | 0 | – | – | 1 | 19 | – | – |
| CO.COc1cc(/C=C/C(=O)N2CCN(c3nc(N)c4cc(OC)c(OC)cc4n3)CC2)cc(OC)c1 | 0 | 0 | 0 | 0 | – | – | – | – | – | – | – | – | – | – | – |
| COc1cc2nc(N3CCN(C(=O)/C=C/c4ccc(C)o4)CC3)nc(N)c2cc1OC.Cl | 0 | 1 | 1 | 2 | 22 | – | – | 0 | – | 0 | 0 | – | – | 0 | – |
| COc1cc2nc(N3CCN(C(=O)/C=C/c4sccc4C)CC3)nc(N)c2cc1OC.Cl | 1 | 2 | 2 | 2 | 25 | – | – | 0 | – | 1 | 1 | – | – | 1 | Decrease (Rattus norvegicus [14]): 10% |
| COc1cc2nc(N3CCN(C(=O)/C(C)=C/c4ccccc4)CC3)nc(N)c2cc1OC.Cl | – | – | – | – | – | 1 | 1 | 0 | 0 | 1 | 0 | 0 | 16 | 0 | Decrease (Rattus norvegicus [14]): 12% |
| COc1cc2nc(N3CCN(C(=O)/C=C/c4ccc(Br)cc4)CC3)nc(N)c2cc1OC.Cl | 0 | 0 | 1 | 1 | 12 | – | – | – | – | – | – | – | – | – | – |
| COc1cc2nc(N3CCN(C(=O)/C=C/c4ccc(C)cc4)CC3)nc(N)c2cc1OC.Cl | – | – | – | – | – | 0 | 0 | – | 0 | – | – | 1 | 10 | – | – |
| COc1cc2nc(N3CCN(C(=O)/C=C/c4ccc(Cl)cc4)CC3)nc(N)c2cc1OC.Cl | – | – | 1 | 0 | 10 | – | – | – | – | – | – | – | – | – | – |
| CCOc1ccccc1/C=C/C(=O)N1CCN(c2nc(N)c3cc(OC)c(OC)cc3n2)CC1.Cl | – | 0 | – | 0 | – | – | – | – | – | – | – | – | – | – | – |
| COc1cc2nc(N3CCN(C(=O)/C=C/c4ccc(C)s4)CC3)nc(N)c2cc1OC.Cl | – | – | – | – | – | 0 | 0 | – | 0 | – | – | 1 | 14 | – | – |
| COc1cccc(/C=C/C(=O)N2CCN(c3nc(N)c4cc(OC)c(OC)cc4n3)CC2)c1.Cl | 0 | – | 1 | 1 | 12 | – | – | – | – | – | – | – | – | – | – |
| COc1cc2nc(N3CCN(C(=O)/C=C/c4ccc(Cl)o4)CC3)nc(N)c2cc1OC.Cl | – | – | – | – | – | 1 | 1 | – | 0 | – | – | 1 | 17 | – | – |
| COc1cc2nc(N3CCN(C(=O)/C(C)=C/c4ccco4)CC3)nc(N)c2cc1OC.Cl | – | – | – | – | – | 1 | 1 | 0 | 0 | 1 | 0 | 0 | 16 | 0 | Decrease (Rattus norvegicus [14]): 15% |
| COc1cc2nc(N3CCN(C(=O)/C=C/c4cccc([N+](=O)[O-])c4)CC3)nc(N)c2cc1OC.Cl | – | – | 0 | 0 | – | – | – | – | – | – | – | – | – | – | – |
| COc1ccccc1/C=C/C(=O)N1CCN(c2nc(N)c3cc(OC)c(OC)cc3n2)CC1.Cl | – | – | 0 | 0 | – | – | – | – | – | – | – | – | – | – | – |
| COc1cc2nc(N3CCN(C(=O)/C=C/c4ccc(Cl)s4)CC3)nc(N)c2cc1OC.Cl | – | 1 | 1 | 1 | 12 | – | – | – | – | – | – | – | – | – | – |
| COc1cc2nc(N3CCN(C(=O)/C(C)=C/c4cccs4)CC3)nc(N)c2cc1OC.Cl | – | – | – | – | – | 1 | 3 | 0 | 0 | 0 | 1 | 1 | 34 | 1 | Decrease (Rattus norvegicus [14]): 14% |
| COc1cc2nc(N3CCN(C(=O)/C=C/c4ccc(OC(C)C)cc4)CC3)nc(N)c2cc1OC.Cl | 0 | 0 | 1 | 1 | 19 | – | – | – | – | – | – | – | – | – | – |
| COc1ccc(/C=C/C(=O)N2CCN(c3nc(N)c4cc(OC)c(OC)cc4n3)CC2)cc1 | 0 | 1 | 2 | 2 | 23 | 2 | 0 | 0 | 0 | 1 | 0 | 1 | 20 | 1 | Decrease (Rattus norvegicus [14]): 15% |
| Cc1ccc(N(CC2=NCCN2)c2cccc(O)c2)cc1 [PHENTOLAMINE] | – | – | – | – | – | – | – | – | – | – | – | – | – | – | Kb (Rattus norvegicus [21]): 8.51 nM; Ratio [22]: 0.006 |
